Data: US6410740B1, “Heterocyclylmethyl-substituted pyrazol derivatives” (Bayer Aktiengesellschaft, priority 1996, dated 2002)
Like-named read-outs stand apart in the source and are kept apart here.

What was measured:
[1] = biological target: T1, soluble guanylate cyclase (Sus scrofa, UniProt A0A4X1U7N1+A0ACM8Q7I6); assay: Stimulation of soluble guanylate cyclase in primary endothelial cells (intracellular cGMP, radioimmunological); format: cell-based; conditions: test substance 1 μM, 10-minute incubation, primary pig aortic endothelial cells, with or without SNP 1 μM (not stated which); for activation at 1 µM: 10 min, read-out: % increase in cGMP
T1 construct: endogenous in cells; host or cells: primary endothelial cells from pig aorta
T1 sequence (A0A4X1U7N1 1-619): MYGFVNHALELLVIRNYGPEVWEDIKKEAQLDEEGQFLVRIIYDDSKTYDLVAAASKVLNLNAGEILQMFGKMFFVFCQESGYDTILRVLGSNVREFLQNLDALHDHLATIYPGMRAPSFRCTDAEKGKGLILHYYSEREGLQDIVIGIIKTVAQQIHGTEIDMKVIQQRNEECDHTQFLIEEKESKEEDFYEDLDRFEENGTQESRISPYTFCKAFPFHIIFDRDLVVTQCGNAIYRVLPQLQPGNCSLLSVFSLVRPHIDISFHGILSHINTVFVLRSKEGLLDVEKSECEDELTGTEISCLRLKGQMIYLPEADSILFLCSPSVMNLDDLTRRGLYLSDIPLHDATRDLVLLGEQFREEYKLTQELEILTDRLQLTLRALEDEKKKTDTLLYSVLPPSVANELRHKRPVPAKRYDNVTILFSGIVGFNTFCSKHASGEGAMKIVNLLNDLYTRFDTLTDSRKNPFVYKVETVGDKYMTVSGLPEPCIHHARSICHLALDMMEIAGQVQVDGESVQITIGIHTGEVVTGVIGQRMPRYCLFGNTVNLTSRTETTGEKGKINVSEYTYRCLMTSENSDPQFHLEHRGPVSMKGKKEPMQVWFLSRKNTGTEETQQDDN
T1 sequence (A0ACM8Q7I6 1-688): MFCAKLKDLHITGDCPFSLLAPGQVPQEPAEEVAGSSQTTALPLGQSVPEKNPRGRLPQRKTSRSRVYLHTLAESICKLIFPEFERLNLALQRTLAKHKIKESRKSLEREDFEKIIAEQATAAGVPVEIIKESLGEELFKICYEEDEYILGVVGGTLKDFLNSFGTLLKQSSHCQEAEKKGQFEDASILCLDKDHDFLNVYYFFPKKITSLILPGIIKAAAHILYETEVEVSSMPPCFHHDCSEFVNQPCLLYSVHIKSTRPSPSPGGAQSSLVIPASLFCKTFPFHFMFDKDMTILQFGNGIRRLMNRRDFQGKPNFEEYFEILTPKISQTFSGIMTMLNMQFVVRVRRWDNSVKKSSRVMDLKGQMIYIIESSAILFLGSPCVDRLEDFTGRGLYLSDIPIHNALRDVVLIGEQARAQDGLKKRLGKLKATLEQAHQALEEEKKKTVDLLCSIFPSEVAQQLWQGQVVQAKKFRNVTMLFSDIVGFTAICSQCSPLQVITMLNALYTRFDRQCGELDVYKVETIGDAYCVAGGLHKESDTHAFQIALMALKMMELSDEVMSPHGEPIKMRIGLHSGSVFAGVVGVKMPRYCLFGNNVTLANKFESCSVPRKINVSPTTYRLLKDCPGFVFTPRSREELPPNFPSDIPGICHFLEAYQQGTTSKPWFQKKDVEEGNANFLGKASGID
Procedure: Stimulation of Soluble Guanylate Cyclase in Primary Endothelial Cells
(§1) Primary endothelial cells were isolated from pig aortas by treatment with collagenase solution. The cells were then cultured in a culture medium until confluence was reached. For the investigations, the cells were subjected to passaging, sown in cell culture plates and subcultured until confluence was reached. To stimulate the endothelial guanylate cyclase, the culture medium was suctioned off and the cells were washed once with Ringer's solution and incubated in stimulation buffer with or without an NO donor (sodium nitroprusside, SNP, 1 μM). Thereafter, the test substances (final concentration 1 μM) were pipetted onto the cells. At the end of the 10-minute incubation period, the buffered solution was suctioned off and the cells were lysed at −20° C. for 16 hours. The intracellular cGMP was then determined radioimmunologically.
as §1, with “sucked” for “suctioned”
as §1, with “without” for “without an”, “buffer” for “buffered”

[2] = tested on: rabbit aortic rings precontracted with phenylephrine; assay: Vessel-relaxing action in vitro on isolated aortic rings precontracted with phenylephrine; conditions: rabbit aorta rings, phenylephrine contraction
Procedure: Vessel-relaxing Action in vitro
Rings 1.5 mm wide of an aorta isolated from a rabbit are introduced individually, under pretension, in 5 ml organ baths with Krebs-Henseleit solution warmed to 37° C. and gassed with carbogen. The contraction force is amplified and digitalized and recorded in parallel on a line recorder. To generate a contraction, phenylephrine is added cumulatively to the bath in an increasing concentration.
(§2) After several control cycles, the substance to be investigated is investigated in each further pass in each case in an increasing dosage, and a comparison is made with the level of the contraction achieved in the last preliminary pass. The concentration necessary to reduce the level of the control value by 50% (IC50) is calculated from this. The standard application volume is 5 μl.
as §2, with “this.” for “this. The standard application volume is 5 μl.”
The standard application volume is 5 μl.

[3] = Oryctolagus cuniculus, embodiment III
[4] = Oryctolagus cuniculus, iv, embodiment IV
[5] = Oryctolagus cuniculus, embodiment II

CC(=O)OCc1oc(-c2nn(Cc3ccccc3)c3ccccc23)nc1C [III-77]
activation at 1 µM ([1]; embodiment III): > 1000% | IC50 [2, 3]: 8.3 µM

CC(O)c1ccc(-c2nn(Cc3ccccc3)c3ccccc23)o1 (centres unmarked) [IV-139, 1-[5-(1-Benzylindazol-3-yl)-furan-2-yl]-ethanol]
activation at 1 µM ([1]; embodiment IV): 723% | IC50 [2, 4]: 12 µM

N#Cc1cnc(-c2nn(Cc3ccccc3)c3ccccc23)nc1N [II-49]
activation at 1 µM ([1]; embodiment II): > 1000% | IC50 [2, 5]: 65 µM

OCc1cnc(-c2nn(Cc3ccccc3)c3ccccc23)s1 [III-92]
activation at 1 µM ([1]; embodiment III): 319%

Cc1nc(-c2nn(Cc3ccccc3)c3ccccc23)oc1CO [III-75]
activation at 1 µM ([1]; embodiment III): > 1000% | IC50 [2, 3]: 2.2 µM

c1ccc(Cn2nc(-c3cnccn3)c3ccccc32)cc1 [II-55]
IC50 [2, 5]: > 35 µM

c1ccc(Cn2nc(-c3ccccn3)c3ccccc32)cc1 [II-58]
activation at 1 µM ([1]; embodiment II): 271%

OCc1csc(-c2nn(Cc3ccccc3)c3ccccc23)n1 [III-82]
activation at 1 µM ([1]; embodiment III): 455% | IC50 [2, 3]: 15 µM

Cc1nc(-c2nn(Cc3ccccc3)c3ccccc23)nc(C)c1Cl [II-47]
activation at 1 µM ([1]; embodiment II): 240%

Cc1cnc(-c2nn(Cc3ccccc3)c3ccccc23)nc1C [II-38, 1-Benzyl-3-(4,5-dimethyl-2-pyrimidyl)indazole]
activation at 1 µM ([1]; embodiment II): > 1000% | IC50 [2, 5]: 11 µM

CNc1nc(-c2nn(Cc3ccccc3)c3ccccc23)ncc1Cl [II-48]
activation at 1 µM ([1]; embodiment II): > 1000% | IC50 [2, 5]: 13 µM

COCc1oc(-c2nn(Cc3ccccc3)c3ccccc23)nc1C [III-90]
IC50 [2, 3]: 4.1 µM

OCCNc1nccc(-c2nn(Cc3ccccc3)c3ccccc23)n1 [II-52]
activation at 1 µM ([1]; embodiment II): 397% | IC50 [2, 5]: 14 µM

OCc1cccc(-c2nn(Cc3ccccc3)c3ccccc23)n1 [II-36, 1-Benzyl-3-(6-hydroxymethyl-2-pyridyl)indazole]
activation at 1 µM ([1]; embodiment II): 225% | IC50 [2, 5]: 13 µM

Cc1cc(-c2nn(Cc3ccccc3)c3ccccc23)nc(Cl)n1 [II-51]
IC50 [2, 5]: > 30 µM

Cc1cc(C)c(C#N)c(-c2nn(Cc3ccccc3)c3ccccc23)n1 [II-60]
IC50 [2, 5]: > 30 µM

Cc1nc(-c2nn(Cc3ccccc3)c3ccccc23)nc(C)c1C [II-46]
activation at 1 µM ([1]; embodiment II): 390%

Cc1cc(Cl)cc(-c2nn(Cc3ccccc3)c3ccccc23)n1 [II-61]
IC50 [2, 5]: > 30 µM

O=[N+]([O-])c1ccc(-c2nn(Cc3ccccc3)c3ccccc23)o1 [IV-143, 1-Benzyl-3-(5-nitrofuran-2-yl)-indazole]
activation at 1 µM ([1]; embodiment IV): > 1000%

OCc1coc(-c2nn(Cc3ccccc3)c3ccccc23)c1 [IV-164]
activation at 1 µM ([1]; embodiment IV): 289% | IC50 [2, 4]: 12 µM

CCOCc1oc(-c2nn(Cc3ccccc3)c3ccccc23)nc1C [III-91]
activation at 1 µM ([1]; embodiment III): 479%

Fc1ccccc1Cn1nc(-c2ncccn2)c2ccccc21 [II-40]
activation at 1 µM ([1]; embodiment II): > 1000% | IC50 [2, 5]: 24 µM

CCc1coc(-c2nn(Cc3ccccc3)c3ccccc23)n1 [III-88]
IC50 [2, 3]: 7.1 µM

OCc1cnc(-c2nn(Cc3ccccc3F)c3ccccc23)s1 [III-95]
IC50 [2, 3]: 2.4 µM

O=Cc1ccc(-c2nn(Cc3ccc(F)cc3)c3ccccc23)o1 [IV-148]
activation at 1 µM ([1]; embodiment IV): 978% | IC50 [2, 4]: 6.7 µM

OCc1nnc(-c2nn(Cc3ccccc3F)c3ccccc23)o1 [III-79]
% increase in cGMP ([1]; embodiment III): 124% | IC50 [2, 3]: 13 µM

CC(=O)OCc1nnc(-c2nn(Cc3ccccc3F)c3ccccc23)o1 [III-78]
activation at 1 µM ([1]; embodiment III): 223% | IC50 [2, 3]: 10 µM

CCOC(OCC)c1nc(-c2nn(Cc3ccccc3)c3ccccc23)ncc1C [II-45]
activation at 1 µM ([1]; embodiment II): 326%

Cc1coc(-c2nn(Cc3ccccc3F)c3ccccc23)n1 [III-80]
activation at 1 µM ([1]; embodiment III): > 1000% | IC50 [2, 3]: 3.6 µM

Cc1cc(-c2nn(Cc3ccccc3)c3ccccc23)oc1CO [IV-179]
activation at 1 µM ([1]; embodiment IV): 921% | IC50 [2, 4]: 11 µM

OCc1ccc(-c2nn(Cc3c(F)cccc3F)c3ccccc23)o1 [IV-165]
activation at 1 µM ([1]; embodiment IV): 256% | IC50 [2, 4]: 29 µM

c1ccc(Cn2nc(-c3ncco3)c3ccccc32)cc1 [III-87]
activation at 1 µM ([1]; embodiment III): 268% | IC50 [2, 3]: 19 µM

O=Cc1ccc(-c2nn(Cc3ccccc3)c3ccccc23)o1 [IV-138, 1-Benzyl-3-(5-formylfuran-2-yl)-indazole]
activation at 1 µM ([1]; embodiment IV): 324%

Cc1cccc(-c2nn(Cc3ccccc3)c3ccccc23)n1 [II-59]
activation at 1 µM ([1]; embodiment II): 268% | IC50 [2, 5]: > 33 µM

O/N=C/c1ccc(-c2nn(Cc3ccccc3)c3ccccc23)o1 [IV-153]
activation at 1 µM ([1]; embodiment IV): 341% | IC50 [2, 4]: 9.1 µM

Cc1ccnc(-c2nn(Cc3ccccc3)c3ccccc23)n1 [II-42]
activation at 1 µM ([1]; embodiment II): 611% | IC50 [2, 5]: 10 µM

N#Cc1cccc(Cn2nc(-c3ccc(CO)o3)c3ccccc32)c1 [IV-166]
IC50 [2, 4]: 18 µM

CC(=O)c1ccc(-c2nn(Cc3ccccc3)c3ccccc23)o1 [IV-140, 3-(5-Acetylfuran-2-yl)-1-benzyl-indazole]
activation at 1 µM ([1]; embodiment IV): 619% | IC50 [2, 4]: 12 to 17 µM

OCc1nnc(-c2nn(Cc3ccccc3)c3ccccc23)o1 [III-81]
activation at 1 µM ([1]; embodiment III): 110% | IC50 [2, 3]: 12 µM

Cc1cnc(-c2nn(Cc3ccccc3F)c3ccccc23)nc1C [II-43]
activation at 1 µM ([1]; embodiment II): > 1000%

OCc1nnc(-c2nn(Cc3ccccc3F)c3ccccc23)o1 [III-76]
% increase in cGMP ([1]; embodiment III): 397% | IC50 ([2]; embodiment III): 7.4 µM

c1ccc(Cn2nc(-c3ncccn3)c3ccccc32)cc1 [II-39]
activation at 1 µM ([1]; embodiment II): 909% | IC50 [2, 5]: 11 µM

Cc1cncc(-c2nn(Cc3ccccc3)c3ccccc23)n1 [II-56]
activation at 1 µM ([1]; embodiment II): 233% | IC50 [2, 5]: > 33 µM

Cc1cnc(-c2nn(Cc3ccccc3C#N)c3ccccc23)nc1C [II-44]
activation at 1 µM ([1]; embodiment II): > 1000%

CCOC(=O)c1coc(-c2nn(Cc3ccccc3)c3ccccc23)n1 [III-93]
activation at 1 µM ([1]; embodiment III): 271%
